The results in this text go back to US20050020594A1, “Substituted pyridazinones” (Pharmacia Corporation, priority 2003, published 2005).

This experiment has as its target T1, human p38 kinase alpha (Homo sapiens, UniProt Q16539).
T1 construct: made in house; host or cells: E. coli DH10B
Description: p38 alpha kinase assay. It is filed as biochemical. To be noted: in vitro inhibition of activated human p38 kinase alpha; two formats described (PHAS-I/32P-ATP, EGFRP/33P-ATP), format used not stated; values given as ranges. The protocol: The ability of compounds to inhibit human p38 kinase alpha was evaluated using two in vitro assay methods. In the first method, activated human p38 kinase alpha phosphorylates a biotinylated substrate, PHAS-I (phosphorylated heat and acid stable protein-insulin inducible), in the presence of gamma ^32P-ATP (^32P-ATP). PHAS-I was biotinylated prior to the assay and provides a means of capturing the substrate, which is phosphorylated during the assay. p38 Kinase was activated by MKK6. Compounds were tested in 10 fold serial dilutions over the range of 100 μM to 0.001 μM using 1% DMSO. Each concentration of inhibitor was tested in triplicate. All reactions were carried out in 96 well polypropylene plates. Each reaction well contained 25 mM HEPES pH 7.5, 10 mM magnesium acetate and 50µM unlabeled ATP. Activation of p38 was required to achieve sufficient signal in the assay. Biotinylated PHAS-I was used at 1-2 μg per 50 μl reaction volume, with a final concentration of 1.5 μM. Activated human p38 kinase alpha was used at 1 μg per 50 μl reaction volume representing a final concentration of 0.3 μM. […] The plates were sealed and counted. […] 150 μl of Microscint 40 was then added to each well of the Microlite plate, and the plate was sealed, mixed, and counted.

T1 sequence (Q16539 whole entry): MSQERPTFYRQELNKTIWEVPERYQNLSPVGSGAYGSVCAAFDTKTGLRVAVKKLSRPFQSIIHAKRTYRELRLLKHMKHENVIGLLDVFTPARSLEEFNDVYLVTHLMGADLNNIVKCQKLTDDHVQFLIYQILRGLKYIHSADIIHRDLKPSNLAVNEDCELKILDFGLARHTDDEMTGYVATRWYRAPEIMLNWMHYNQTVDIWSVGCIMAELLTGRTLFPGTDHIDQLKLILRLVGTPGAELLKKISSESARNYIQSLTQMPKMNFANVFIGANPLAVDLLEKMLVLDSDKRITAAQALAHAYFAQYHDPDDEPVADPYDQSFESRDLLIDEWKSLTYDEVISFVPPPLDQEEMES

As usually defined, the IC50 is the concentration at which inhibition is half-maximal. A high value points to weaker potency in that assay. Compound `Cc1c(OCCc2ccccc2)cnn(-c2c(Cl)cccc2Cl)c1=O` [Compound 49, 2-(2,6-dichlorophenyl)-4-methyl-5-(2-phenylethoxy)pyridazin-3(2H)-one] had a half-inhibitory concentration (IC50) of 0.1 to 20 µM.

As to `O=c1cc(OCCc2ccccc2)cnn1-c1c(Cl)cccc1Cl` [Compound 48, 2-(2,6-dichlorophenyl)-5-(2-phenylethoxy)pyridazin-3(2H)-one], the IC50 fell in the range of 40 to 60 µM.
